Test results as given in ChEMBL document CHEMBL3734752, “Acylhydrazone derivatives as potential anticancer agents: Synthesis, bio-evaluation and mechanism of action” (Bioorg Med Chem Lett, 2015).
≈ marks a conversion by molar mass, not a printed value. Calls of active or inactive are those of the source. No cut-off for these calls is given here.

Experiments:
HepG2 [1] = experiment: Induction of apoptosis in human HepG2 cells assessed as necrotic cells at IC50 concentration after 24 hrs by Annexin V-FITC/propidium iodide staining-based flow cytometry (reference value: 1.6 %); assay type: functional
Huh-7 [2] = experiment: (§1) Cytotoxicity against human HuH7 cells assessed as inhibition of cell proliferation at 40 ug/ml after 72 hrs by MTT assay; assay type: functional
HepG2 [3] = experiment: Induction of apoptosis in human HepG2 cells assessed as viable cells at IC50 concentration after 24 hrs by Annexin V-FITC/propidium iodide staining-based flow cytometry (reference value: 97 %); assay type: functional
[4] = (§2) Cytotoxicity against human BCG823 cells assessed as inhibition of cell proliferation after 72 hrs by MTT assay; assay type: functional, cell-based; details: BCG823, 72 h
BCG823 [5] = experiment: as §2; assay type: functional, cell-based
HepG2 [6] = experiment: Induction of apoptosis in human HepG2 cells assessed as necrotic cells at 2 times IC50 after 24 hrs by Annexin V-FITC/propidium iodide staining-based flow cytometry (reference value: 1.6 %); assay type: functional
HepG2 [7] = experiment: Cytotoxicity against human HepG2 cells assessed as inhibition of cell proliferation at 40 ug/ml after 72 hrs by MTT assay; assay type: functional, cell-based
HepG2 [8] = experiment: Cytotoxicity against human HepG2 cells assessed as inhibition of cell proliferation after 72 hrs by MTT assay; assay type: functional, cell-based; details: for IC50: HepG2, 72 h
HepG2 [9] = experiment: Induction of apoptosis in human HepG2 cells assessed as late apoptotic cells at IC50 concentration after 24 hrs by Annexin V-FITC/propidium iodide staining-based flow cytometry (reference value: 0.2 %); assay type: functional
HepG2 [10] = experiment: Induction of apoptosis in human HepG2 cells assessed as early apoptotic cells at 2 times IC50 after 24 hrs by Annexin V-FITC/propidium iodide staining-based flow cytometry (reference value: 1.2 %); assay type: functional
HepG2 [11] = experiment: Induction of apoptosis in human HepG2 cells assessed as early apoptotic cells at IC50 concentration after 24 hrs by Annexin V-FITC/propidium iodide staining-based flow cytometry (reference value: 1.2 %); assay type: functional
BCG823 [12] = experiment: Cytotoxicity against human BCG823 cells assessed as inhibition of cell proliferation at 40 ug/ml after 72 hrs by MTT assay; assay type: functional, cell-based
HepG2 [13] = experiment: Induction of apoptosis in human HepG2 cells assessed as late apoptotic cells at 2 times IC50 after 24 hrs by Annexin V-FITC/propidium iodide staining-based flow cytometry (reference value: 0.2 %); assay type: functional
[14] = (§3) Cytotoxicity against human HuH7 cells assessed as inhibition of cell proliferation after 72 hrs by MTT assay; assay type: functional, cell-based; details: Huh-7, 72 h
HepG2 [15] = experiment: Induction of apoptosis in human HepG2 cells assessed as viable cells at 2 times IC50 after 24 hrs by Annexin V-FITC/propidium iodide staining-based flow cytometry (reference value: 97 %); assay type: functional
Huh-7 [16] = experiment: as §3; assay type: functional, cell-based
[17] = as §1; assay type: functional; details: Huh-7, 72 h

SMILES	IC50 [4] [µg/mL]	IC50 (HepG2 [8]) [µg/mL]	IC50 [14] [µg/mL]	further results
C/C(=N\NC(=O)c1ccc(CSc2nc(C)cc(C)n2)cc1)c1ccc(F)cc1	3.88 (≈ 9.5 µM)	4.85 (≈ 11.9 µM)	3.25 (≈ 7.96 µM)	Activity (HepG2 [1]): 4.5%; inhibition (Huh-7 [2]): Active; Activity (HepG2 [3]): 83.8%; inhibition (BCG823 [5]): Dose-dependent effect; Activity (HepG2 [6]): 4.9%; inhibition (HepG2 [7]): Active; inhibition (HepG2 [8]): Dose-dependent effect; Activity (HepG2 [9]): 1.4%; Activity (HepG2 [10]): 16.5%; Activity (HepG2 [11]): 10.3%; inhibition (BCG823 [12]): Active; Activity (HepG2 [13]): 2.3%; Activity (HepG2 [15]): 76.3%
Cc1cc(C)nc(SCc2ccc(C(=O)N/N=C/c3c[nH]c4ccccc34)cc2)n1	35.5 (≈ 85.5 µM)	34.1 (≈ 82.2 µM)	23.2 (≈ 55.9 µM)	–
COc1cc(/C=N/NC(=O)CSc2nc3ccccc3s2)cc(OC)c1OC	> 80	> 80	> 80	–
C/C(=N\NC(=O)CSc1nc2ccccc2s1)c1ccc(C)c([N+](=O)[O-])c1	17.8 (≈ 44.5 µM)	33 (≈ 82.3 µM)	10.1 (≈ 25.1 µM)	inhibition (Huh-7 [2]): Active; inhibition (BCG823 [5]): Dose-dependent effect; inhibition (HepG2 [7]): Active; inhibition (HepG2 [8]): Dose-dependent effect; inhibition (BCG823 [12]): Active; inhibition (Huh-7 [16]): Dose-dependent effect
C/C(=N\NC(=O)CSc1nc2ccccc2s1)c1ccc([N+](=O)[O-])cc1	35.7 (≈ 92.4 µM)	> 80	39.7 (≈ 103 µM)	–
C/C(=N\NC(=O)c1ccc(CSc2nc(C)cc(C)n2)cc1)c1ccc(C)c([N+](=O)[O-])c1	> 80	> 80	> 80	–
O=C(CSc1nc2ccccc2s1)N/N=C/c1c[nH]c2ccccc12	> 80	> 80	32.9 (≈ 89.7 µM)	inhibition at 40 µg/mL [17]: 55%
COc1cc(/C=N/NC(=O)c2ccc(CSc3nc4ccccc4s3)cc2)cc(OC)c1OC	> 80	> 80	> 80	–
O=C(CSc1nc2ccccc2s1)N/N=C1\C(=O)Nc2ccccc21	17.7 (≈ 48 µM)	23.9 (≈ 65 µM)	13.1 (≈ 35.6 µM)	inhibition (Huh-7 [2]): Active; inhibition (HepG2 [7]): Active; inhibition (BCG823 [12]): Active
O=C(N/N=C/c1c[nH]c2ccccc12)c1ccc(CSc2nc3ccccc3s2)cc1	> 80	> 80	7.74 (≈ 17.5 µM)	inhibition at 40 µg/mL [17]: 74%
C/C(=N\NC(=O)c1ccc(CSc2nc3ccccc3s2)cc1)c1ccc(C)c([N+](=O)[O-])c1	> 80	> 80	> 80	–
O=C1Nc2ccccc2/C1=N/NC(=O)c1ccc(CSc2nc3ccccc3s2)cc1	11.9 (≈ 26.7 µM)	5.71 (≈ 12.8 µM)	4.58 (≈ 10.3 µM)	Activity (HepG2 [1]): 1.6%; inhibition (Huh-7 [2]): Active; Activity (HepG2 [3]): 89.3%; inhibition (BCG823 [5]): Dose-dependent effect; Activity (HepG2 [6]): 5.6%; inhibition (HepG2 [7]): Active; inhibition (HepG2 [8]): Dose-dependent effect; Activity (HepG2 [9]): 3.7%; Activity (HepG2 [10]): 14.5%; Activity (HepG2 [11]): 5.5%; inhibition (BCG823 [12]): Active; Activity (HepG2 [13]): 2.2%; Activity (HepG2 [15]): 77.7%
C/C(=N\NC(=O)c1ccc(CSc2nc3ccccc3s2)cc1)c1ccc([N+](=O)[O-])cc1	31.3 (≈ 67.7 µM)	35.7 (≈ 77.2 µM)	4.46 (≈ 9.64 µM)	–
COc1cc(/C=N/NC(=O)c2ccc(CSc3nc(C)cc(C)n3)cc2)cc(OC)c1OC	36.8 (≈ 78.8 µM)	33.3 (≈ 71.3 µM)	17.4 (≈ 37.3 µM)	–
O=c1[nH]cc(F)c(=O)[nH]1 [FLUOROURACIL]	17.4 (≈ 134 µM)	36 (≈ 277 µM)	10.4 (≈ 80 µM)	inhibition (BCG823 [5]): Dose-dependent effect; inhibition (HepG2 [8]): Dose-dependent effect; inhibition (Huh-7 [16]): Dose-dependent effect
